Data from doi:10.1101/2025.01.28.635346v1 (bioRxiv, 2025).
pIC50: −log10 of the molar value. Bridge positions count the residues as written; N and C are the ends. Peptide text beside a SMILES is read from it.

Experiments:
integrin αvβ6 [1] = molecular target: T1, integrin αvβ6 (Homo sapiens, UniProt P06756+P18564); assay: ELISA competition assay, integrin αvβ6 binding to LAP
integrin αvβ8 = integrin αvβ8 (Homo sapiens, UniProt P06756+P26012); assay: ELISA competition assay, integrin αvβ8 binding to LAP
integrin αvβ3 = integrin αvβ3 (Homo sapiens, UniProt P05106+P06756); assay: ELISA competition assay, integrin αvβ3; format: binding
[2] = tested on: αvβ6/8 vs other RGD-integrins; assay: Selectivity and potency gain for αvβ6/8, worked out from integrin IC50 values; format: binding, human; details: for improvement in potency (IC50) for αvβ6/8 relative to parent lassotide: 24 and 30 vs 14, 35 vs 28, 36 vs 30, 47 vs 36
integrin αvβ6 [3] = molecular target: T1, integrin αvβ6; assay: AlphaLISA competition assay vs LAP, biotinylated αvβ6; format: binding
Mouse αvβ6 = molecular target: T2, Mouse αvβ6 (Mus musculus, UniProt P43406+Q9Z0T9); assay: ELISA competition assay, mouse integrin αvβ6; format: binding
T2 sequence (P43406 31-988 limits assumed): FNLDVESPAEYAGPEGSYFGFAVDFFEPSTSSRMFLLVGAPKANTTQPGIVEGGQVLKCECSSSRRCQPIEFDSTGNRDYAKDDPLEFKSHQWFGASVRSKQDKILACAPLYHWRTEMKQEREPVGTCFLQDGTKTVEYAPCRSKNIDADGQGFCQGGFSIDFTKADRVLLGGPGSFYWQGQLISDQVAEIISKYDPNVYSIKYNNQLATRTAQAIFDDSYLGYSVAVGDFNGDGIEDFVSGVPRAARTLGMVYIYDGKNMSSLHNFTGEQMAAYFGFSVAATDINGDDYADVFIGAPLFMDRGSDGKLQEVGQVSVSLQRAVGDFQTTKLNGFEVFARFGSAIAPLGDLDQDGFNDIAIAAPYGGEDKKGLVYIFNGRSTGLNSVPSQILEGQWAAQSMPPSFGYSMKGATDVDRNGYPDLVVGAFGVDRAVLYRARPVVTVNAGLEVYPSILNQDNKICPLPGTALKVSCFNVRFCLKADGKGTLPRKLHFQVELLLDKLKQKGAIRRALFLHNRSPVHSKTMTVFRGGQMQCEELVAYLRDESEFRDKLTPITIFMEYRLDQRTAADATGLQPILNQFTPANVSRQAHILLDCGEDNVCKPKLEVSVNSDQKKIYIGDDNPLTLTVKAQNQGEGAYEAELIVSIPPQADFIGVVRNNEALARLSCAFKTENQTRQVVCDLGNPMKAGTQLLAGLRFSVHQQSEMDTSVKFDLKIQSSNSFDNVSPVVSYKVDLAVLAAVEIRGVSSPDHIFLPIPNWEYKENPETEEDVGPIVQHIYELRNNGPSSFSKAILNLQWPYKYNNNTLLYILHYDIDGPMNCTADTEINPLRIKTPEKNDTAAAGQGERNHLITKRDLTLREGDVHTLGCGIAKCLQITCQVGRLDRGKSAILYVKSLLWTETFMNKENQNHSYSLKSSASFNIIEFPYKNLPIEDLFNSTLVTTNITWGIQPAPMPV
T2 sequence (Q9Z0T9 22-707 limits assumed): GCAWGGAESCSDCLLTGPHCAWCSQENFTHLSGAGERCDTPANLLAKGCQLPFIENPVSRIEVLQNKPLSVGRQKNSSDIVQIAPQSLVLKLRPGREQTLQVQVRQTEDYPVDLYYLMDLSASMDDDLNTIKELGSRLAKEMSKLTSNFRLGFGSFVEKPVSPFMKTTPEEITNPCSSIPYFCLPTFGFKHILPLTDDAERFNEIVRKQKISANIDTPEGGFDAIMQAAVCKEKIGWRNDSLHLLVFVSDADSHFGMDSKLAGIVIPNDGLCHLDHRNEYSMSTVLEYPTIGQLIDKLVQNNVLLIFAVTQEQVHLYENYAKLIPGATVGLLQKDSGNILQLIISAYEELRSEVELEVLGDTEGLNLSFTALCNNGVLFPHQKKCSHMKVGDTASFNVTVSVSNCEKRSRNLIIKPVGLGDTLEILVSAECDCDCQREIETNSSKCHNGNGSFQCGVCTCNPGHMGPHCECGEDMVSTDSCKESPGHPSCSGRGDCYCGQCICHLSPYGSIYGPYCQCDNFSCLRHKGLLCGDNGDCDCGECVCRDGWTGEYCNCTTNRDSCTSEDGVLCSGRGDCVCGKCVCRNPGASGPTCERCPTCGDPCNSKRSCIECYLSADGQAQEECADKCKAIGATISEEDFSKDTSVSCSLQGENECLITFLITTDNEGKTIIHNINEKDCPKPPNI

SMILES | pIC50 (integrin αvβ6 [1]) | pIC50 (integrin αvβ8) | pIC50 (integrin αvβ3) | selectivity favoring αvβ6/8 over αvβ3 ([2]; from IC50 values) | improvement in potency (IC50) for αvβ6/8 relative to parent lassotide [2] | pIC50 (integrin αvβ6 [3]) | pIC50 (Mouse αvβ6) | pIC50 (integrin αvβ6 [1]; Human αvß6 IC50, ELISA run in triplicate, mean, Table S1) | pIC50 (integrin αvβ6 [1]; αvβ6 IC50, ELISA competition vs LAP, mean, n ≥ 3)
CC[C@H](C)[C@H](NC(=O)[C@H](CC(C)C)NC(=O)[C@H](CC(=O)O)NC(=O)CNC(=O)[C@H](CCCNC(=N)N)NC(=O)[C@@H](NC(=O)[C@H](Cc1ccccc1)NC(=O)[C@H](Cc1ccc(O)cc1)NC(=O)[C@@H]1CCC(=O)NCC(=O)NCC(=O)N[C@@H](C)C(=O)NCC(=O)N[C@@H](Cc2c[nH]cn2)C(=O)N[C@@H](C(C)C)C(=O)N2CCC[C@H]2C(=O)N1)C(C)C)C(=O)N[C@@H](CO)C(=O)N[C@@H](Cc1ccccc1)C(=O)N[C@@H](Cc1ccc(O)cc1)C(=O)NCC(=O)O [lassotide 14] (GGAGHVPEYFVRGDLISFYG-OH; lactam N-8; C-terminus assumed) | 7.08 | 6.94 | 6.62 | 2-3 fold |  |  |  |  | 
CC(C)C[C@H](NC(=O)[C@H](CC(=O)O)NC(=O)CNC(=O)[C@H](CCCNC(=N)N)NC(=O)[C@@H](NC(=O)[C@H](Cc1ccccc1)NC(=O)[C@H](Cc1ccc(O)cc1)NC(=O)[C@@H]1CCC(=O)NCC(=O)NCC(=O)N[C@@H](C)C(=O)NCC(=O)N[C@@H](Cc2c[nH]cn2)C(=O)N[C@@H](C(C)C)C(=O)N2CCC[C@H]2C(=O)N1)C(C)C)C(=O)N[C@@H](CCC(N)=O)C(=O)N[C@@H](CO)C(=O)N[C@@H](Cc1ccccc1)C(=O)N[C@@H](Cc1ccc(O)cc1)C(=O)NCC(=O)O [lassotide 24] (GGAGHVPEYFVRGDLQSFYG-OH; lactam N-8; C-terminus assumed) | 8.22 |  |  |  | up to 7 fold | 7.89 | 8.15 |  | 
CC[C@H](C)[C@H](NC(=O)[C@H](CC(C)C)NC(=O)[C@H](CC(=O)O)NC(=O)CNC(=O)[C@H](CCCNC(=N)N)NC(=O)[C@@H](NC(=O)[C@H](Cc1ccccc1)NC(=O)[C@H](Cc1ccc(O)cc1)NC(=O)[C@@H]1CCC(=O)NCC(=O)NCC(=O)N[C@@H](CCCNC(=N)N)C(=O)NCC(=O)N[C@@H](Cc2c[nH]cn2)C(=O)N[C@@H](C(C)C)C(=O)N2CCC[C@H]2C(=O)N1)C(C)C)C(=O)N[C@@H](CO)C(=O)N[C@@H](Cc1ccccc1)C(=O)N[C@@H](Cc1ccc(O)cc1)C(=O)NCC(=O)O [lassotide 30] (GGRGHVPEYFVRGDLISFYG-OH; lactam N-8; C-terminus assumed) |  | 7.57 |  |  | 3-4 fold |  | 7.62 | 7.77 | 7.52
